Experimental data as given in ChEMBL document CHEMBL5608168, “An overview of PROTACs targeting MDM2 as a novel approach for cancer therapy” (Eur J Med Chem, 2024).
Blank lines part the entries; values can stand above or below the compound they belong to.

Experiments:
A549 [1] = experiment: Induction of apoptosis in human A549 cells assessed as apoptotic rate at 5 uM incubated for 24 hrs by Annexin V-FITC staining based flow cytometry relative to control; assay type: functional
[2] = Metabolic stability in mouse liver microsomes assessed as half life; assay type: ADME, Microsome
[3] = Antiproliferative activity against human Triple-negative breast cancer cell; assay type: functional, cell-based; details: Breast carcinoma cell
A549 [4] = experiment: Anticancer activity against human A549 cells assessed as reduction in cell growth incubated for 72 hrs by CCK-8 assay; assay type: functional, cell-based; details: A549, 72 h
[5] = Terminal half life in Sprague-Dawley rat at 2 mg/kg, iv by LC-MS/MS analysis; assay type: ADME, organism-based; details: in vivo
A549 [6] = experiment: Antitumor activity against human A549 cells xenografted in BALB/c nude mouse assessed as tumor growth inhibition at 30 mg/kg, ip administered twice daily for 21 days relative to control; assay type: functional; details: A549, 504 h, time 21 day, read-out: TGI
MOLM-13 = experiment: Antiproliferative activity against human MOLM-13 assessed as reduction in cell viability; assay type: functional, cell-based
[7] = Antiproliferative activity against human derived Acute myeloid leukemic cells assessed as reduction in cell viability incubated for 48 hr by CellTiter-Glo assay; assay type: functional, cell-based; details: Leukemia cell
[8] = molecular target: E3 ubiquitin-protein ligase Mdm2 (Homo sapiens, UniProt Q00987); experiment: Homo-PROTAC activity at MDM2 in human A549 cells assessed as self ubiquitination mediated protein degradation by Western Blot analysis; assay type: cell-based
Chain of E3 ubiquitin-protein ligase Mdm2 (Q00987 whole entry): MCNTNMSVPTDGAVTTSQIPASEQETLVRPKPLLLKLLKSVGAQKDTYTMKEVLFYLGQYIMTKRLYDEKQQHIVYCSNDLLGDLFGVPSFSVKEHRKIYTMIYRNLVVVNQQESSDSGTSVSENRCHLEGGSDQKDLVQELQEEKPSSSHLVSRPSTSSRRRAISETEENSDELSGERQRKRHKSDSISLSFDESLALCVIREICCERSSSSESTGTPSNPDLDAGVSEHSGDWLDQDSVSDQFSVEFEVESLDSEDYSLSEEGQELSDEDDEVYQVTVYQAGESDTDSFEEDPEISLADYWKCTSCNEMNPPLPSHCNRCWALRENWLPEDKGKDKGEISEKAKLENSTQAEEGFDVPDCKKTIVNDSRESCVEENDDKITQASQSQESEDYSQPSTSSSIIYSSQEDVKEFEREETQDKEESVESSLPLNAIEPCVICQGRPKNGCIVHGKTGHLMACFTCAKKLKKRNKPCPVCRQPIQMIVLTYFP

Compound: C[C@H]1[C@H](C)CC[C@]2(C(=O)NCCOCCOCCOCCNc3cccc4c3C(=O)N(C3CCC(=O)NC3=O)C4=O)CC[C@]3(C)C(=CC[C@@H]4[C@@]5(C)CC[C@H](O)C(C)(C)[C@@H]5CC[C@]43C)[C@H]12 (some centres undefined)
Activity (A549 [1]): 26.74%

Compound: CCOc1cc(C(C)(C)C)ccc1C1=N[C@@](C)(c2ccc(Cl)cc2)[C@@](C)(c2ccc(Cl)cc2)N1C(=O)N1CCN(CC(=O)NCCOCCOCCOCC(=O)N[C@H](C(=O)N2C[C@H](O)C[C@H]2C(=O)NCc2ccc(-c3scnc3C)cc2)C(C)(C)C)CC1
half-life [2]: 25.9 min
IC50 [3]: 4 µM

Compound: CCOc1cc(C(C)(C)C)ccc1C1=N[C@@H](c2ccc(Cl)cc2)[C@@H](c2ccc(Cl)cc2)N1C(=O)N1CCN(CC(=O)NCCOCCOCCOCCNC(=O)CN2CCN(C(=O)N3C(c4ccc(C(C)(C)C)cc4OCC)=N[C@@H](c4ccc(Cl)cc4)[C@H]3c3ccc(Cl)cc3)CC2=O)C(=O)C1
IC50 (A549 [4]): 0.58 µM
beta t1/2 [5]: 576 min
inhibition in vivo at 30 mg/kg (A549 [6]): 52.4%

IC50 (MOLM-13): 0.05 µM
Compound: Cc1ncsc1-c1ccc(CNC(=O)[C@@H]2C[C@@H](O)CN2C(=O)[C@@H](NC(=O)CCCCCCCCC(=O)N2CCN(S(=O)(=O)C[C@@H](N3C(=O)[C@@](C)(CC(=O)O)C[C@H](c4cccc(Cl)c4)[C@H]3c3ccc(Cl)cc3)C(C)(C)C)CC2)C(C)(C)C)cc1
IC50 [7]: 0.04 µM

Compound: CCOc1cc(C(C)(C)C)ccc1C1=NC(c2ccc(Cl)cc2)C(c2ccc(Cl)cc2)N1C(=O)N1CCN(CC(=O)NCCOCCOCCOCCNC(=O)CN2CCN(C(=O)N3C(c4ccc(C(C)(C)C)cc4OCC)=NC(c4ccc(Cl)cc4)C3c3ccc(Cl)cc3)CC2=O)C(=O)C1 (racemic)
DC50 [8]: 1.01 µM
